Columns and labels:
[1] = tested on: NO-induced methemoglobinemia; test: NO-induced methemoglobinemia and lung inflammation after accidental NO exposure, H2 inhalation and magnesium ingestion (Example 12); assay type: in vivo, human
Source text: During the course of developing the described methods for producing NO for a more affordable, effective, and safe source of NO therapy, one of the inventors accidentally exposed themself both chronically and acutely to NO gas. […] Since onset of symptoms, the inventor inhaled H2 gas, produced by reacting elemental magnesium and citric acid in a glass of water.
Their condition and SpO2 worsened throughout the day, and later that night they were admitted in the emergency room at a hospital with a recorded SpO2 of 45%. The hospital verified that the inventor developed NO-induced lung inflammation by X-rays and a CAT scan. Upon the diagnosis, blood samples were taken from the inventor to measure methemoglobin levels. […] A normal methemoglobin fraction is about 1%. […] Accordingly, no methemoglobin treatment (e.g., intravenous administration of methylene blue) was administered to the inventor.

[2] = cited from earlier work
[3] = Inventor exposed to NO levels higher than 25 ppm during development, SpO2 oximeter; assay type: in vivo, human
Source text: In fact, the inventor's oxygenation levels as measured by SpO2 oximeter were always in the 97-100 range. Accordingly, also disclosed herein are methods of preventing the onset of methemoglobinemia from nitrate, nitrite, or NO exposure, wherein the method comprising administering hydrogen to the subject exposed to a source of nitrate, a source of nitrite, or NO.

[4] = cited from earlier work; remark: listed apart in the source
[5] = tested on: subject with respiratory illness
[6] = cited from earlier work; remark: listed apart in the source

What does the source list for [HH] [H2 gas, hydrogen]?
methemoglobin in blood samples ([1]; at SpO2 of 45%, after H2 inhalation and 2000 mg elemental magnesium powder): no methemoglobin was detected; minor methemoglobinemia caused by inhalation of NO gas ([1]; other experiments, SpO2 returning to normal): reversed; increase in relative humidity (for every about 40 ppm increase in H2 concentration, 30 C): 1%; H2 concentration shown safe (no symptoms of water in the lungs) (sensor limit 1000 ppm): 1000 ppm

Which results are given for [N]=O [NO, nitric oxide]?
outright toxic concentration ([2]; in vivo): ≥ 100 ppm; SpO2 one day after exposure to high ambient NO ([1]; ambient NO >80 ppm): 85%; SpO2 recorded in the emergency room later that night ([1]; ambient NO >80 ppm, after prolonged H2 inhalation): 45%; ill effects ([3]; NO levels higher than 25 ppm): no ill effects; oxygenation levels by SpO2 oximeter ([3]; exposed multiple times to NO levels higher than 25 ppm): 97-100

For O=[N+]([O-])O [nitrate alone], which oxygen saturation ([4]; 409 mg and 479 mg doses, Rosetti et al., Barlow et al.) is on record?
Its oxygen saturation is “failed to produce any increase in oxygen saturation”.

For O=[N+]([O-])[O-].[K+] [potassium nitrate], which “other symptoms (weakness, coughing)” value ([5]; human, in vivo) is on record?
Its value is “no attenuation of their other symptoms”.

And the “SpO2 for up to 4 hours after administration” value ([5]; person)?
Its value is “showed no signs of increase”.

What about the “SpO2 15 minutes after administration” value ([5]; person, baseline 93%) of the same molecule?
Its value is 93%.

What about the “lower blood oxygen saturation versus the placebo” value ([4]; hypoxic conditions, Schiffer et al.) of the same molecule?
Its value is “about 3%”.

What does the source list for O=NO [Sodium nitrite]?
methemoglobin level ([6]; 600 mg to an adult for cyanide toxicity, van Heijst et al.): 58%; lowest calculated lethal dose ([6]; Katabami et al.): 2.6 grams; dose in a reported case of severe methemoglobinemia ([6]; in vivo): about 70 mg

Which “oxygen consumption during exercise” value ([4]; Larsen et al., Bailey et al.) does the source give for O=[N+]([O-])[O-].[Na+] [sodium nitrate] here?
Its value is “reduce oxygen consumption during exercise”.

With [O]N=O [NO2, nitrogen dioxide] as the molecule, how does the “permissible exposure limit in homes and offices” value ([2]; OSHA, 9 mg/m^3) read?
The value was at most 5 ppm.

What about the “concentration that can trigger symptoms in asthmatic people” value ([2]; OSHA) of the same molecule?
The value was 2 ppm.

What about the “concentration that starts to damage the lungs” value ([2]; OSHA) of the same molecule?
The value was 5 ppm.

And the “levels shown to cause respiratory discomfort in vulnerable populations” value ([2]; asthmatics)?
The value was at least 0.1 ppm.

What about the “concentration that can kill a human” value ([2]; exposed for about an hour) of the same molecule?
Its value is 100 ppm.
